{"source": "ChEMBL document CHEMBL5143734", "about": "“Seco-Lupane Triterpene Derivatives Induce Ferroptosis through GPX4/ACSL4 Axis and Target Cyclin D1 to Block the Cell Cycle” (J Med Chem, 2022)", "key": {"HepG2 [1]": {"system": "HepG2", "assay": "Induction of ferroptosis in human HepG2 cells assessed as log2 fold decrease in GPX4 mRNA expression by qRT-PCR analysis", "type": "functional"}, "HepG2 [2]": {"system": "HepG2", "assay": "Inhibition of Cyclin D1 in human HepG2 cells assessed as reduction in CDK6 expression by Western blot analysis", "type": "cell-based", "conditions": "dose 0.5-2 µM, DDE = dose-dependent effect"}, "HepG2 [3]": {"system": "HepG2", "assay": "Induction of ferroptosis in human HepG2 cells assessed as increase in intracellular ROS level incubated for 48 hrs by DCFH-DA staining based fluorescence microscopic analysis", "type": "functional, cell-based", "conditions": "dose 0.25-1 µM, DDE = dose-dependent effect"}, "HepG2 [4]": {"system": "HepG2", "assay": "Antiproliferative activity against human HepG2 cells at 0.125 to 0.5 uM incubated for 48 hrs", "type": "functional, cell-based", "conditions": "dose 0.125-0.5 µM"}, "HepG2 [5]": {"system": "HepG2", "assay": "Induction of ferroptosis in human HepG2 cells assessed as increase in ACSL4 protein expression at 2 uM by Western blot analysis", "type": "functional, cell-based", "conditions": "time 6-36 hrs, TDE = time-dependent effect"}, "[6]": {"assay": "Inhibition of Cyclin D1 in human HepG2 cells assessed as reduction in CDK4 expression by Western blot analysis", "conditions": "dose 0.5-2 µM, DDE = dose-dependent effect"}, "HepG2 [7]": {"system": "HepG2", "assay": "Induction of cell death in human HepG2 cells measured after 48 hrs by Annexin V-FITC/PI double staining based flow cytometry analysis", "type": "functional", "conditions": "dose 0.5-2 µM, DDE = dose-dependent effect"}, "HepG2 [8]": {"system": "HepG2", "assay": "Downregulation of Cyclin D1 protein expression in human HepG2 cells measured at 2 uM by Western blot analysis", "type": "functional, cell-based", "conditions": "time 6-36 hrs, TDE = time-dependent effect"}, "HepG2 [9]": {"system": "HepG2", "assay": "Induction of ferroptosis in human HepG2 cells assessed as decrease in GPX4 mRNA expression measured after 36 hrs by qRT-PCR analysis", "type": "functional, cell-based", "conditions": "dose […], DDE = dose-dependent effect"}, "HepG2 [10]": {"system": "HepG2", "assay": "Downregulation of Cyclin D1 mRNA expression in human HepG2 cells assessed as fragments per kilo base of exon per million mapped fragments by RT-qPCR analysis (reference value: 59.65 to 61.74)", "type": "functional"}, "HepG2 [11]": {"system": "HepG2", "assay": "Inhibition of Cyclin D1 in human HepG2 cells assessed as reduction in Rb phosphorylation by Western blot analysis", "type": "cell-based", "conditions": "dose 0.5-2 µM, DDE = dose-dependent effect"}, "HepG2 [12]": {"system": "HepG2", "assay": "Antimigratory activity against human HepG2 cells assessed as reduction in cell migration measured after 24 hrs by crystal violet staining based transwell assay", "type": "functional", "conditions": "dose 0.125-0.5 µM, DDE = dose-dependent effect"}}, "note": "Calls of active or inactive are those of the source. The calls are words filed in the database; no cut-off is given here."}
{"molecule": "C=C(C)[C@@H]1CC[C@]2(C(=O)OCCCCCn3cc(CCN)c4ccccc43)CC[C@]3(C)[C@H](C[C@H]4OC(=O)C[C@@H](O)[C@]5(C)[C@@H]4[C@@]3(C)CC[C@H]5C(=C)C)[C@@H]12", "values": [{"measurement": "log2FC", "setting": "HepG2 [1]", "result": -0.29}, {"measurement": "inhibition", "setting": "HepG2 [2]", "result": "Dde"}, {"measurement": "Activity", "setting": "HepG2 [3]", "result": "Dde"}, {"measurement": "Activity", "setting": "HepG2 [4]", "result": "Active"}, {"measurement": "Activity", "setting": "HepG2 [5]", "result": "Tde"}, {"measurement": "inhibition", "setting": "[6]", "result": "Dde"}, {"measurement": "Activity", "setting": "HepG2 [7]", "result": "Dde"}, {"measurement": "Activity", "setting": "HepG2 [8]", "result": "Tde"}, {"measurement": "Activity", "setting": "HepG2 [9]", "result": "Dde"}, {"measurement": "Activity", "setting": "HepG2 [10]", "result": 53.4}, {"measurement": "inhibition", "setting": "HepG2 [11]", "result": "Dde"}, {"measurement": "Activity", "setting": "HepG2 [12]", "result": "Dde"}]}
